From the METLIN SMRT retention time set (Domingo-Almenara et al. 2019)

Test: gradient 5% acetonitrile 3 min, to 50% in 2 min, to 85% in 15 min, held 3 min, 100 µL/min
Settings: column: Zorbax Extend-C18 2.1 x 50 mm; eluents: water / acetonitrile, 0.1% formic acid
Summary of the method: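 Mixtures of ~100 pure standards were chromatographed on a Zorbax Extend-C18 column (2.1 × 50 mm, 1.8 μm) at 100 μL/min using water and acetonitrile, each with 0.1% formic acid. Detection used a quadrupole time-of-flight mass spectrometer in positive and negative ionization mode, and data collection spanned 3 months. Retention time was obtained from adduct peaks picked computationally and each checked manually.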

SMILES | RP-LC retention time
CCCN(CCC)CCc1ccc(O)c(O)c1 | 602 s
CCCNC(=O)C1CCCN(c2nc3ccsc3c(=O)n2-c2cccc(OC)c2)C1 (configuration not stated) | 735 s
Cc1cccc(CNC(=O)c2nnc(-c3ccc(S(=O)(=O)N(C)C)cc3)o2)c1 | 894 s
Cc1csc(-c2csc(S(=O)(=O)N3CCN(c4ccccc4)CC3)c2)n1 | 1090 s
COc1ccc(C2(C(=O)N3CCC(Cc4nc(-c5ccccc5)n[nH]4)C3)CC2)cc1 (configuration not stated) | 734 s
CC1CC(=O)N(CC(=O)Nc2cccc(C(F)(F)F)c2)c2ccccc2S1(=O)=O (configuration not stated) | 875 s
Cc1cc(C)cc(C(=O)Nc2cc(-c3ccccn3)no2)c1 | 911 s
COCCN1C(=O)Cc2ccccc2C1C(=O)NCc1ccc(C(C)C)cc1 (configuration not stated) | 861 s
Cc1cccc(NC(=O)CN2C(=O)CCCc3cc(S(=O)(=O)N4CCCC4)ccc32)c1C | 916 s
CNCC[C@@H](Oc1ccccc1C)c1ccccc1 | 728 s
CCCCNC(=O)C1CCCN(c2nnc3ccc(C(F)(F)F)cn23)C1 (configuration not stated) | 751 s
O=C(c1ccno1)N1CCC(c2nnc(-c3ccco3)s2)CC1 | 644 s
CCSc1ccc(Cc2nnc(NC(=O)c3ccc(S(=O)(=O)N(C)C)cc3)o2)cc1 | 819 s
O=C(Nc1ccc(OCC(=O)N2CCN(c3cccc(Cl)c3)CC2)nc1)C1CC1 | 836 s
Cc1cc2c(cc1NC(=O)c1cccs1)n(C)c(=O)n2C | 668 s
CC(C)C(NC(=O)NCc1ccc(F)cc1)C(=O)N1CCc2ccccc21 (configuration not stated) | 917 s
CC(C)c1noc(-c2cccnc2N2CCCN(Cc3cccc(Cl)c3)CC2)n1 | 742 s
Cc1csc(-c2cn(CC(=O)Nc3ccc(C)c(F)c3)cn2)n1 | 728 s
Cn1c(=O)c2c(ncn2CC(=O)N2CCC(Cc3nc(C4CCOCC4)no3)CC2)n(C)c1=O | 610 s
COc1ccc(Oc2ncc(-c3ccc(C(=O)NC4CC4)cc3)cn2)cc1 | 774 s
CCC(CC)NC(=O)C1CCCCC(=O)N1 (configuration not stated) | 652 s
COc1ccc(-n2c(CN3CCN(C(=O)NC(C)C)CC3)nc3cccnc32)cc1 | 595 s

SMILES | RP-LC retention time
Cc1cc(N2CCN(C(=O)C3CCC3)CC2)nc2nncn12 | 566 s
CCOc1ccc(CNC(=O)C2CCN(S(=O)(=O)c3cn(CC)cn3)CC2)cc1OC | 676 s
N#Cc1cccc(C(=O)Nc2cnn(-c3ncc(N4CCCC4)cn3)c2)c1 | 777 s
CSc1cccc(NC(=O)N2CCC(c3nc(C(=O)N(C)C)c(C)o3)CC2)c1 | 732 s
Cc1cc(C(=O)N2C[C@@H](C)[C@H](c3nc(-c4ccccc4)no3)C2)n[nH]1 | 804 s
COc1ccc(C)cc1NC(=O)Cc1csc2nc(-c3ccc(C)c(C)c3)cn12 | 930 s
Cc1ccc2[nH]cc(CCN3CC(C(=O)NCc4ccc5c(c4)OCO5)CC3=O)c2c1 (configuration not stated) | 770 s
COc1ccc(-n2ccn(CC(=O)Nc3ccc(OC)c(Cl)c3)c2=O)cc1 | 734 s
O=C(NCc1ccc2c(c1)OCO2)c1ccc(-c2cc(N3CCOCC3)ncn2)cc1 | 643 s
COc1cc(OC)cc(-c2nnc(Cc3nc(-c4ccc(Cl)cc4)no3)o2)c1 | 1110 s
Cc1nnc(C2CCCN(C(=O)COc3ccccc3)C2)s1 (configuration not stated) | 653 s
Cc1nc2c(nc1C)C(=O)c1ccccc1C2=O | 655 s
CCN(CC)C(=O)c1ccc2c(c1)N(CC(=O)Nc1ccc3c(c1)OCO3)C(=O)C1CCCCN21 (configuration not stated) | 808 s
O=C(NC1CCCCC1)c1nc(-c2cn(-c3ccc(Cl)cc3)nn2)no1 | 1030 s
CC(C)OCCCNC(=O)c1ccc2c(c1)CCCN2S(C)(=O)=O | 767 s
O=C(CN1CC(c2nc(-c3cccnc3)no2)C1)Nc1cc(C(F)(F)F)ccc1Cl | 634 s
Clc1cccc(-c2nnc(Cc3nc(-c4ccc5c(c4)OCO5)no3)o2)c1 | 1020 s
CCCn1c(=O)sc2cc(S(=O)(=O)N3CCC(C(=O)Nc4ccc(OC)cc4)CC3)ccc21 | 918 s
COc1ccc(CC(=O)N2CCCC2c2nc(-c3ccc(OC)c(OC)c3)no2)cc1Cl (configuration not stated) | 911 s
O=C(NC1CC1)C1CCN(c2ccc(=O)n(-c3ccc(F)cc3)n2)CC1 | 671 s
CCn1c(=O)c(C(=O)NCCCOC(C)C)nc2cccnc21 | 728 s
CC(C)(C)NC(=O)NCC1CC(=O)N(c2ccc(Cl)cc2)C1 (configuration not stated) | 706 s

The remaining lines, values ahead:

RP-LC retention time | SMILES
673 s | CCc1nc2cc(N3CCCC(C(=O)NCc4ccco4)C3)cnc2nc1CC (configuration not stated)
1200 s | O=S(=O)(c1cc(-c2ccno2)cs1)N(CCc1ccccc1)Cc1ccccc1
1170 s | O=C(c1ccco1)N1CCc2c([nH]c3ccccc23)C1c1ccc(Cl)cc1 (configuration not stated)
704 s | COc1ccc(-c2cc(C(=O)N3CCOCC3)nn2C2CCS(=O)(=O)C2)cc1 (configuration not stated)
1180 s | O=C(Nc1ccc(Cl)cn1)C(=O)c1cccn1Cc1ccccc1
719 s | O=C(NC1CCCCCCC1)C1CCCN(c2cn[nH]c(=O)c2)C1 (configuration not stated)
655 s | O=C(c1ccc(Nc2c(-c3ccccc3)nc3cnccn23)cc1)N1CCOCC1
908 s | Cc1ccc(C)c(N2CCN(C(=O)CN(C)S(=O)(=O)c3ccc4c(c3)CCCC(=O)N4)CC2)c1
846 s | Cc1ccc(-c2nnc(SCc3noc(CCC(=O)Nc4cc(C)on4)n3)o2)cc1
921 s | Cc1cc(C)cc(S(=O)(=O)NCc2c(-c3ccccc3)nc3sc(C)nn23)c1
569 s | CN(C)CCNC(=O)CCc1cc2ccccc2[nH]c1=O
744 s | CCC(CC)C(=O)NCCc1nc2cccnc2n1-c1ccccc1
762 s | COc1ccc(CNC(=O)Cn2nc3c(N4CCSCC4)nccn3c2=O)cc1
954 s | COC(=O)C1C(=O)C2=C(CC1C)NC(C)=C(C(=O)OC(C)C)C2c1ccccc1F (configuration not stated)
872 s | CCCc1noc(-c2ccc3nnc(CC(=O)Nc4ccccc4F)n3c2)n1
794 s | COc1cccc(OC)c1C(=O)N1CCCC1c1cc(C(C)C)on1 (configuration not stated)
592 s | O=C(CSc1ccc2nnc(-c3cccnc3)n2n1)NC1CCCCC1
1050 s | O=C(C1CCN(S(=O)(=O)c2cc(-c3noc(C4CCC4)n3)cs2)CC1)N1CCCCCC1
563 s | CN(CCC#N)C(=O)Cn1nc(Cc2cccnc2)c2ccccc2c1=O
817 s | COCCC(=O)N1CCCN(C2=NS(=O)(=O)C(c3ccc(C(C)C)cc3)=C2C)CC1
754 s | COc1cc(-c2ccc(F)cc2)nc2ccc(NS(=O)(=O)c3ccccc3)cc12
1020 s | Cc1cccc(-c2noc(-c3sc4ncn(CC(=O)N5CCCC5)c(=O)c4c3C)n2)c1
598 s | O=S1(=O)C[C@H](N2CCN(c3ccccn3)CC2)[C@@H](S(=O)(=O)c2ccccc2)C1
